Data from patent US20140348901A1, “COMBINATORIAL METHODS AND COMPOSITIONS FOR TREATMENT OF MELANOMA” (The Penn State Research Foundation, priority 2004, published 2014).

How the values were obtained:
advanced stage melanoma = conditions: cited from earlier work
[1] = test system: mutant ^V599EB-Raf protein signaling; experiment: pMek and pErk Western blot in UACC 903 cells with increasing BAY 43-9006; type: cell-based, human
phosphorylated Erk = experiment: In vivo pErk measurements in UACC 903 tumor sections (immunohistochemistry); design: species or system nude mice; conditions: 50 mg/kg, 9 days after start of treatment
Protocol: To quantitate changes in pErk levels in formalin-fixed, paraffin-embedded tumor sections, antigen retrieval was performed with 0.01 M citrate buffer at pH 6.0 for 20 minutes in a 95° C. water bath. Slides were cooled for 20 minutes, rinsed in PBS and then incubated in 3% H2O2 for 10 minutes to quench endogenous peroxidase activity. Next, sections were blocked with 1% BSA for 30 minutes and incubated with anti-pERK antibody at a 1:100 dilution (Cell Signaling Technologies, Beverly, Mass.) overnight at 4° C. Following rinsing in PBS, sections were incubated with biotinylated anti rabbit IgG for 1 hour, rinsed again in PBS, and incubated with peroxidase labeled streptavidine for 30 minutes. […] The average percentage of cells±SEM that stained positive for pErk was counted from a minimum of 6 different tumors with 4-6 fields counted per tumor.
To confirm that the BAY 43-9006 compound affected activity of the mutant ^V599EB-Raf signaling pathway in tumors, the percentage of cells expressing elevated levels of phosphorylated Erk was scored in tumors from mice 9 days after start of treatment with vehicle (DMSO) or vehicle containing 50 mg/kg BAY 43-9006 (FIG. 15C).

[2] = test system: wild type or mutant ^V599EB-Raf protein; experiment: pMek and pErk in HEK 293T cells expressing HA-tagged wild type or mutant B-Raf exposed to BAY 43-9006; type: cell-based, human; conditions: 5 uM, 2 hours
Protocol: The BAY 43-9006 compound used for these studies was synthesized as described in ref (Bankston D et al. Organic Process Res Dev. 6: 777-81 (2002)). To evaluate the inhibitory effects of BAY 43-9006 on wild type and mutant B-Raf, HEK 293T cells were transfected with HA-tagged wild type B-RAF, mutant ^V599EB-RAF or vector (pcDNA3) using Calcium Phosphate as described previously (Robertson G P et al. Proc Natl Acad Sci USA. 95: 9418-23 (1998)). Following transfection (72 hours) media was replaced with DMEM media supplemented with 10% FBS and 5 uM BAY 43-9006 or DMSO vehicle. Two hours later, protein lysates were collected for Western blot analysis. Levels of phosphorylated Mek and Erk were quantified from 3 independent blots and fold differences under different conditions were estimated after normalizing against an Erk 2 loading control.

1205 Lu tumors = experiment: BAY 43-9006 on preexisting 1205 Lu tumors in nude mice; type: in vivo; conditions: 50 mg/kg
Protocol: (§1) Effect of BAY 43-9006 on tumor development was measured by subcutaneously injecting 5×10^6 UACC 903 or 1×10^6 1205 Lu cells into nude mice. After 6 days when a small tumor (50-100 mm^3) had developed, the mice received an intra peritoneal injection on alternate days consisting of 50 μl of vehicle (DMSO), or the drug BAY 43-9006 at concentrations of 10, 50 or 100 mg/kg body weight for UACC 903 cells and 50 mg/kg body weight for 1205 Lu cells. For studies involving pretreatment with BAY 43-9006, 50 mg/kg body weight of drug was intra peritoneally injected twice (−4 and −2 days) prior to subcutaneous injection of UACC 903 or 1205 Lu cells. The mechanism by which pharmacological inhibition of mutant ^V599EB-Raf delays tumor development was identified by comparing tumors of the same size developing in parallel. This was achieved by subcutaneous injection of 5×10^6 UACC 903 cells followed at day 6 by intra peritoneal injection every 2 days with 50 mg/kg of BAY 43-9006. […]
It is currently unknown whether targeting mutant ^V599EB-Raf in established preexisting melanoma tumors could retard tumor development, and if so, whether the mechanism is the same as that occurring when targeting ^V599EB-Raf in cells prior to tumor formation. […] Size of the developing tumors was measured using calipers on alternate days and the results are shown for UACC 903 cells in FIG. 4A and 1205 Lu cells in FIG. 15B. […]

1205 Lu cells = experiment: Pretreatment of mice with BAY 43-9006, 1205 Lu tumor development; type: in vivo, nude mice; conditions: 50 mg/kg i.p., 1205 Lu (not shown)
Protocol: as §1, with “43-9006. For temporal and spatial matching of control DMSO with drug treated tumors, either 1×10^6, 2.5×10^6 or 5×10^6 […] UACC 903 cells were subcutaneously injected and from day 6 treated intra peritoneally with DMSO vehicle every 2 days. Drug or vehicle treated tumors of the same size developing in parallel were harvested at days 9, 11, 13 and 15 for comparison.” for “43-9006.”

VEGF = VEGF secretion ELISA, UACC 903 or 1205 Lu cells; type: cell-based, human; conditions: BAY 43-9006 5, 10, 15 uM; UACC 903 and 1205 Lu
Protocol: To determine the amount of VEGF secreted by cells following siRNA-mediated knockdown of B-Raf protein or after treatment with BAY 43-9006, the human VEGF Quantikine kit (DVE00) was used (R&D Systems Inc., Minneapolis, Minn.). UACC 903 or 1205 Lu cells (5×10^5) nucleofected with the various siRNA were plated in 60 mm petri dishes and 24 hours later media replaced with DMEM containing 2% FBS. Following an additional 24 hours, media was again replaced and conditioned media for ELISA analysis was collected 24 and 48 hours later. For BAY 43-9006 studies. 3×10^5 UACC 903 or 1205 Lu cells were plated into 60 mm petri dishes and 24 hours later media was changed to DMEM containing 2% FBS. After an additional 24 hours, media was replaced with DMEM supplemented with 2% FBS alone or in combination with BAY 43-9006 (5, 10, 15 uM) or DMSO vehicle. After 12 or 24 hours, conditioned media was collected for ELISA analysis. The media was cleared by centrifugation at 14,000 rpm (4° C.) for 5 minutes and stored at −80° C. VEGF ELISA analysis was performed in triplicate on duplicate experiments according to the manufacturer's instructions.

UACC 903 cells [3] = experiment: Pretreatment of mice with BAY 43-9006, UACC 903 tumor development; type: in vivo, nude mice; conditions: 50 mg/kg i.p.
Protocol: as §1, with “43-9006. For temporal and spatial matching of control DMSO with drug treated tumors, either 1×10^6, 2.5×10^6 or 5×10^6 […] UACC 903 cells were subcutaneously injected and from day 6 treated intra peritoneally with DMSO vehicle every 2 days. Drug or vehicle treated tumors of the same size developing in parallel were harvested at days 9, 11, 13 and 15 for comparison.” for “43-9006.”

UACC 903 tumors [4] = experiment: BAY 43-9006 on preexisting UACC 903 tumors in nude mice; type: in vivo
Protocol: (§2) Effect of BAY 43-9006 on tumor development was measured by subcutaneously injecting 5×10^6 UACC 903 or 1×10^6 1205 Lu cells into nude mice. After 6 days when a small tumor (50-100 mm^3) had developed, the mice received an intra peritoneal injection on alternate days consisting of 50 μl of vehicle (DMSO), or the drug BAY 43-9006 at concentrations of 10, 50 or 100 mg/kg body weight for UACC 903 cells and 50 mg/kg body weight for 1205 Lu cells. For studies involving pretreatment with BAY 43-9006, 50 mg/kg body weight of drug was intra peritoneally injected twice (−4 and −2 days) prior to subcutaneous injection of UACC 903 or 1205 Lu cells. The mechanism by which pharmacological inhibition of mutant ^V599EB-Raf delays tumor development was identified by comparing tumors of the same size developing in parallel. This was achieved by subcutaneous injection of 5×10^6 UACC 903 cells followed at day 6 by intra peritoneal injection every 2 days with 50 mg/kg of BAY 43-9006. For temporal and spatial matching of control DMSO with drug treated tumors, either 1×10^6, 2.5×10^6 or 5×10^6 […] UACC 903 cells were subcutaneously injected and from day 6 treated intra peritoneally with DMSO vehicle every 2 days. Drug or vehicle treated tumors of the same size developing in parallel were harvested at days 9, 11, 13 and 15 for comparison. At each time point, tumors from mice treated with vehicle or drug were harvested for analysis of cell proliferation, apoptosis and vascular development, as described previously (Stahl J M et al. Cancer Res. 64: 7002-10 (2004), Stahl J M et al. Cancer Res. 63: 2881-90 (2003)).
(§3) It is currently unknown whether targeting mutant ^V599EB-Raf in established preexisting melanoma tumors could retard tumor development, and if so, whether the mechanism is the same as that occurring when targeting ^V599EB-Raf in cells prior to tumor formation. Therefore, we next examined whether pharmacologically targeting B-Raf in preexisting melanoma tumors would inhibit tumor development by a similar mechanism. Five million UACC 903 cells, one million 1205 Lu cells or five million C8161 cells were subcutaneously injected into 4- to 6-week old female nude mice. On day 6, vehicle (DMSO) or BAY 43-9006 compound dissolved in vehicle (10, 50 or 100 mg/kg) was administered to mice via intra peritoneal injection every 48 hours. A 48 hour time period between drug administrations was chosen since inhibitory effects on the MAP kinase signaling pathway in UACC 903, 1205 Lu and C8161 cells persisted for at least that period (data not shown). Size of the developing tumors was measured using calipers on alternate days and the results are shown for UACC 903 cells in FIG. 4A and 1205 Lu cells in FIG. 15B. While all concentrations of the BAY 43-9006 compound slowed UACC 903 tumor development, only concentrations ≧50 mg/kg caused tumor development to plateau 7 days following the start of treatment (FIG. 4B).

C8161 cells [5] = experiment: pMek and pErk levels in C8161 cells with BAY 43-9006; type: cell-based, human
C8161 cells [6] = experiment: BAY 43-9006 on preexisting C8161 tumors in nude mice; type: in vivo; conditions: C8161 (data not shown)
Text: as §3

UACC 903 cells [7] = experiment: BAY 43-9006 growth inhibition/IC-50 of UACC 903 melanoma cells (SRB); type: cell-based, human; conditions: 72 hours; read-out: IC-50, concentration that reduced UACC 903 cell survival by half
Protocol: To measure the growth inhibitory effects or IC-50 of BAY 43-9006 on UACC 903 cells, 5×10^3 cells/well were plated into 96-well plates. Following 24 hours, varying concentrations of BAY 43-9006 (0, 0.02, 0.1, 0.4, 1.6, 6.3, 25, or 100 uM) was added to duplicate 8-strip wells in the plate. After 72 hours of growth at 37° C. in a 5% CO2 humidified atmosphere, media was discarded and cells were fixed in 10% trichloroacetic acid. Surviving cells at each concentrations of the drug were calculated using the SRB binding assay (Stahl J M et al. Cancer Res. 63: 2881-90 (2003)).

UACC 903 tumors [8] = experiment: Apoptosis, cell proliferation and vessel density in size- and time-matched UACC 903 tumors treated with BAY 43-9006; type: in vivo, nude mice
Protocol: as §2
Apoptosis measurements on formalin-fixed, paraffin-embedded tumor sections were undertaken using the TUNEL TMR Red Apoptosis kit from Roche (Manheim, Germany), as described previously (Stahl J M et al. Cancer Res. 64: 7002-10 (2004), Stahl J M et al. Cancer Res. 63: 2881-90 (2003)). Cell Proliferation rates in formalin-fixed tumor sections were measured using the RPN 20 cell proliferation kit (Amersham Biosciences, Piscataway, N.J.) that utilizes BrdU incorporation and immunocytochemistry. […] The number of BrdU stained cells were scored as the percentage of total cells of tumors treated with BAY 43-9006 or vehicle (DMSO). Quantification of vessels density using a purified rat anti-mouse CD31 (PECAM-1) monoclonal antibody (Pharmingen, San Diego, Calif.) has been described previously (Stahl J M et al. Cancer Res. 64: 7002-10 (2004), Stahl J M et al. Cancer Res. 63: 2881-90 (2003)). The proportional area of the tumors occupied by the vessels over the total area was calculated using the IP Lab imaging software program. For all tumor analyses, a minimum of 6 different tumors with 4-6 fields per tumor was analyzed and results represented as the average±SEM.

SMILES: CNC(=O)c1cc(Oc2ccc(NC(=O)Nc3ccc(Cl)c(C(F)(F)F)c3)cc2)ccn1 [BAY 43-9006]
- Efficacy of monotherapy (advanced stage melanoma; advanced stage melanoma patients, oral): relatively ineffective
- Response rate in patients (advanced stage melanoma; in combination with paclitaxel and carboplatinum): 50%
- Persistence of inhibitory effects on MAP kinase signaling ([1]; UACC 903 and 1205 Lu cell lines): 2 to 3 days
- Levels of phosphorylated (active) Mek and Erk ([1]; UACC 903 cells, 2 hours, increasing concentrations): dose responsive manner
- Fold fewer pErk positive cells than vehicle treated tumors (phosphorylated Erk): ~3 fold
- Fold reduction of phosphorylated Erk [2]: 3-4 fold
- Fold reduction of phosphorylated Mek [2]: 5-6 fold
- Plateau in tumor size, days (1205 Lu tumors): 17-to-31 days
- Tumor development after pretreatment (1205 Lu cells): significantly inhibited
- VEGF secretion (VEGF): dose dependent manner
- Tumor development after pretreatment (UACC 903 cells [3]): significantly inhibited
- Tumor size on day 27 (UACC 903 tumors [4]; 10 mg/kg): > 2,400 mm^3
- Delay of tumor development (UACC 903 tumors [4]; 10 mg/kg i.p. every 48 hours): ~1 week
- Increase in tumor sizes from days 13-to-31 (UACC 903 tumors [4]; UACC 903, after a week of drug treatment): no statistically significant increase
- Tumor development plateau, days following the start of treatment (UACC 903 tumors [4]; concentrations ≧50 mg/kg): 7 days
- Concentrations that reduce the tumorigenic potential of melanoma cells containing mutant ^V599EB-Raf (UACC 903 tumors [4]; i.p. every 2 days from day 6): ≥ 50 mg/kg
- pMek and pErk levels (C8161 cells [5]): inhibited
- Kinetics of tumor formation (C8161 cells [6]): no difference
- IC50 (UACC 903 cells [7]): 5 to 6 µM
- Tumor area occupied by apoptosis by day 15 (UACC 903 tumors [8]; 50 mg/kg): up to 25%
- Vessel development at day 9 vs vehicle (UACC 903 tumors [8]; 50 mg/kg): statistically significant difference
- Tumor area undergoing apoptosis by day 20 (UACC 903 tumors [8]; 50 mg/kg (data not shown)): ~50%
- Decrease in percentage of proliferating cells (UACC 903 tumors [8]; preexisting tumors, 50 mg/kg): 32-57%
